Measured values from patent US20080095786A9, “Compositions And Methods For Preventing And Treating Endotoxin-Related Diseases And Conditions” (priority 2003, published 2008).

How the values were obtained:
[1] = Antioxidant screening experiments: stability of E5564 to free-radical oxidation; settings: for Comments (effectiveness of antioxidant in stabilizing E5564 to oxidation): 18-22 hours
Text: We tested several antioxidant compounds to determine whether they impact the stability of E5564 to free-radical oxidation.

[2] = Relative stability of E5564 in aqueous solution by formation of major oxidative degradants (FIG. 1); type: physicochemical; settings: inclusion of BHA, 7 μg/vial
Experimental: FIG. 1 is a graph showing the relative stability of E5564 in aqueous solution prepared with different drug substance lots, as measured by the formation of major oxidative degradants.
The following is a detailed description of an example of a method for formulating E5564. As is discussed further below, key features of this method include the following. A small amount (7 μg/vial) of butylated hydroxyanisole (BHA) was added to the formulation to prevent oxidation of the E5564 in aqueous solution. […] In addition, the sodium content of the solution was lowered by replacing sodium phosphate salts with phosphoric acid for pH adjustment, to enhance micelle size stability during the freeze-drying manufacturing step, and a high shelf temperature was used in the freeze-drying step of the process.

[3] = Stabilization of E5564 micelle size during lyophilization (freeze-drying); settings: for Micelle Size (hydrodynamic diameter): after lyophilization; for Stabilizing the micelle size of E5564 during freeze-drying: disaccharide in formulation
[4] = time 0-4 hours, E5564 solution with the labelled antioxidant
[5] = time 18-22 hours, E5564 solution with the labelled antioxidant (row 'none' = E5564 without antioxidant)
[6] = time 0 hours, E5564 solution with the labelled antioxidant (row 'none' = E5564 without antioxidant)

Row | Structure (SMILES) | Comments (effectiveness of antioxidant in stabilizing E5564 to oxidation) [1] | E5564 conc. (% initial) [1, 4] [% initial] | E5564 conc. (% initial) [1, 5] [% initial] | E5564 conc. (% initial) [1, 6] [% initial] | Major Oxidative Degradant [1, 5] | other results
1 | O[C@H](CS)[C@H](O)CS (racemic) [dithiothreitol] | effective | – | – | – | – | –
2 | O=C1O[C@H]([C@@H](O)CO)C(O)=C1O [Ascorbic Acid] | Not useful, sta- | 100 | 97.4 | – | – | –
3 | COc1ccc(O)c(C(C)(C)C)c1 [BHA, butylated hydroxyanisole] | Effective | – | 102.3 | 100 | 0.27 | Major Oxidative Degradant [1, 6]: 0.68; Stability of E5564 drug product in solution [2]: increases its stability
4 | CCCCCC/C=C\CCCCCCCCCC(=O)N[C@H]1[C@H](OC[C@H]2O[C@H](OP(=O)([O-])[O-])[C@H](NC(=O)CC(=O)CCCCCCCCCCC)[C@@H](OCCCCCCCCCC)[C@@H]2O)O[C@H](COC)[C@@H](OP(=O)([O-])[O-])[C@@H]1OCC[C@@H](CCCCCCC)OC.[Na+].[Na+].[Na+].[Na+] [E5564] | Rapid degradation | – | 91.3 | 100 | 6.02 | Major Oxidative Degradant [1, 6]: 1.12; Stability of micelle size ([3]; 2 mM Na+ in formulation (excluding Na+ from the drug)): good stability; Maintaining the desired micelle size during freeze-drying ([3]; 10 mM Na+ in formulation (excluding sodium from the drug)): works for some, but not all, lots; Micelle Size (hydrodynamic diameter) ([3]; 1% (w/v) lactose in formulation): 16 nm; Micelle Size (hydrodynamic diameter) ([3]; 2% (w/v) lactose in formulation): 13 nm; Micelle Size (hydrodynamic diameter) ([3]; 5% (w/v) lactose in formulation): 8 nm; Micelle Size (hydrodynamic diameter) ([3]; 10% (w/v) lactose in formulation): 7 nm
5 | OCC(O)CS (centres unmarked) [Monothioglycerol, monothioglycerol] | Effective | 100 | 101.3 | – | – | –
6 | O=S([O-])[O-].[Na+].[Na+] [Sodium Sulfite, sodium sulfite] | Effective | 100 | 101.8 | – | 0.25 | Major Oxidative Degradant [1, 4]: 0.13
7 | O=S([O-])([O-])=S.[Na+].[Na+] [Sodium Thiosulfate, sodium thiosulfate] | Effective | 100 | 100.2 | – | 0.19 | Major Oxidative Degradant [1, 4]: 0.09
8 | OC[C@H]1O[C@@H](O[C@H]2[C@H](O)[C@@H](O)C(O)O[C@@H]2CO)[C@H](O)[C@@H](O)[C@H]1O (some centres unmarked) [lactose] | – | – | – | – | – | Stabilizing the micelle size of E5564 during freeze-drying [3]: effective
9 | OC[C@H]1O[C@@](CO)(O[C@H]2O[C@H](CO)[C@@H](O)[C@H](O)[C@H]2O)[C@@H](O)[C@@H]1O [sucrose] | – | – | – | – | – | Stabilizing the micelle size of E5564 during freeze-drying [3]: effective

Continued, in another order:

Row | Comments (effectiveness of antioxidant in stabilizing E5564 to oxidation) [1] | E5564 conc. (% initial) [1, 4] [% initial] | E5564 conc. (% initial) [1, 5] [% initial] | Structure (SMILES) | E5564 conc. (% initial) [1, 6] [% initial] | Major Oxidative Degradant [1, 5] | other results
10 | Not useful, sta- | 100 | 92.4 | CCCCCCCCCCCCCCCC(=O)OC[C@H](O)[C@H]1OC(=O)C(O)=C1O [Ascorbyl Palmitate] | – | – | –
11 | Effective | – | 102.8 | Cc1cc(C(C)(C)C)c(O)c(C(C)(C)C)c1 [BHT, butylated hydroxytoluene] | 100 | – | –
12 | Effective | – | 100.6 | CCCOC(=O)c1cc(O)c(O)c(O)c1 [Propyl Gallate, propyl gallate] | 100 | – | –
13 | – | 100 | 94.2 | CC(=O)Oc1c(C)c(C)c2c(c1C)CCC(C)(CCC[C@H](C)CCC[C@H](C)CCCC(C)C)O2 (some centres unmarked) [Vitamin E Acetate] | – | – | –
